Laboratory results: patent publication US20110065675A1, “AZO DYE RELATED SMALL MOLECULE MODULATORS OF PROTEIN-PROTEIN INTERACTIONS” (University of Miami, priority 2008, published 2011)
Where two headings read alike, the source gives them in different places.

What was measured:
human TNF-R1/TNFα = human TNF-R1/TNFα (Homo sapiens, UniProt P01375+P19438); assay: Specificity test: human TNF-R1/TNFα binding inhibition assay; conditions: for IC50: cell-free binding, read-out: Human TNFR1/TNFα IC50; for Human TNFR1/TNFα log IC50: log of IC50, cell-free binding
Description: A main concern for the therapeutic applicability of these compounds and of small molecule PPI inhibitors in general is related to their ability to achieve some acceptable degree of selectivity/specificity for the PPI of interest. To identify compounds that show acceptable specificity for the CD40/CD154 system, their ability to inhibit the TNF-R1/TNF-α PPI was investigated since this is particularly relevant as CD154 is part of the TNF superfamily. The experimental setup used was very similar to the one described in Example 1, but using plate-coated TNF-R1 and TNF-α as ligand (with a corresponding anti-TNF-α mAb as positive control). The concentration of TNF-R1 and TNF-α used were 0.6 μg/mL and 0.02 μg/mL, respectively.

human CD40/CD154 = target: T1, human CD40/CD154 (Homo sapiens, UniProt P29965); assay: Human CD40/CD154 binding inhibition assay (cell-free, plate-based)
T1 construct: CD154 (soluble human, FLAG-tagged, recombinant from Alexis Biochemicals; MW=18 kDa); purchased Alexis Biochemicals
T1 sequence (P29965 113-261 limits assumed): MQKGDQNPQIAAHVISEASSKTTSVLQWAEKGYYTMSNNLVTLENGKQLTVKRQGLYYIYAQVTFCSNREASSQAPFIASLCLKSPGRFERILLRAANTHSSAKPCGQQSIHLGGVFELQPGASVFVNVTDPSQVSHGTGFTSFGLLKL
Method: A 96-well plate-based cell-free in vitro binding inhibition assay, which is a modification of an assay described in U.S. Pat. No. 7,173,046, incorporated by reference in its entirety, has been developed and used for activity screening. Briefly, CD40 is coated at a preselected concentration, and binding of (FLAG-tagged) CD154 is measured by reacting with secondary antibody and using TMB liquid substrate system as a substrate for horseradish peroxidase for reading at 450 nm. The detailed procedure is as follows: Microtiter plates (Nunc F MaxiSorp) were coated with […] of CD40: Fc (human:Fc human, recombinant from Alexis Biochemicals; MW=54 kDa) diluted in PBS pH 7.2 at a preselected concentration of 0.3125 μg/mL. Plates were covered with plate sealer and stored overnight at 4° C. The liquid was removed from the plates and blotted dry. Plates were blocked by washing once with approx. 300 μL/well of Blocking Solution (PBS pH 7.2, 0.05% Tween-20, 1% BSA) and incubated with the same solution for 1 hour at room temperature (RT) or at 4° C. overnight. Coated plates were washed three times with Washing Solution (PBS pH 7.4, 0.05% Tween-20) and blotted dry. A preselected dilution of CD154 (soluble human, FLAG-tagged, recombinant from Alexis Biochemicals; MW=18 kDa) of 0.0087500875 μg/mL range was prepared in 100 mM HEPES, 0.005% BSA pH 7.2. Binding was carried out by adding 100 μL of this CD154 dilution/well and incubating at RT in the presence of test compounds (or blank as negative control). After incubation, the plates were washed with Washing Solution and blotted dry. Bound CD154 was detected with 200 μL/well of secondary antibody mAb ANTI-FLAG M2—Peroxidase Conjugate (anti-FLAG M2-peroxidase HRP conjugate; Sigma-Aldrich) diluted 1:40,000 in Washing Solution. After incubation, the plates were washed and blotted dry. 200 μL/well of the HR-Peroxidase substrate TMB (3,3′,5,5′-tetramethylbenzidine; Sigma-Aldrich) were added, and the plates were incubated for approximately 30 minutes in the dark. The reaction was stopped with 0.5 M H2SO4 and read at 450 nm. All conditions were tested in at least three independent experiments in duplicate or triplicate per plates. Data were normalized and fitted with standard log inhibitor vs. response models using GraphPad Prism 5 to establish median inhibitory ICso values.
A representative result using the monoclonal anti-human CD154 antibody (R&D Systems, monoclonal anti-human CD40 ligand/TNFSF5 antibody, MAB617; MW≈150 kDa used) as positive control is shown in FIG. 1.
Binding inhibition assays with this system provided consistent and well-reproducible results, as FIG. 1 (bottom), focusing on the concentration range of their activities, illustrates. […] The effect of DMSO, which was used as the diluting solvent for the non-water-soluble compounds and is a standard solvent in HTS assays, on the integrity of the assay has been examined. DMSO concentrations above 10% interfere with the binding assay, but concentrations below 3% have no effect. […] Because 5 or 10 mM stock solutions were used, all IC50 values below 250 μM can be considered as unaffected by DMSO.

[1] = target: T2, mouse CD40/CD154 (mCD40:mCD154) (Mus musculus, UniProt P27548); assay: Murine CD40/CD154 binding inhibition assay; conditions: for IC50: cell-free binding, read-out: Mouse CD40/CD154 IC50; for Mouse CD40/CD154 log IC50: log of IC50, cell-free binding
T2 construct: (FLAG-tagged) mCD154 (recombinant mouse CD40L, soluble, Alexis Biochemicals); purchased R&D Systems (mCD40/Fc); Alexis Biochemicals (mCD154)
T2 sequence (P27548 112-260 limits assumed): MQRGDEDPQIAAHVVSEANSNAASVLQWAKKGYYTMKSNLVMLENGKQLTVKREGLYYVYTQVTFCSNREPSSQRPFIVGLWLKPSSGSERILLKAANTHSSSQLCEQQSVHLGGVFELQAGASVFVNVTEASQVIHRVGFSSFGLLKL
Method: Compounds of interest were also tested in a murine (mouse) model similar to the human one with murine CD40 and CD154 replacing the corresponding human proteins. This serves as additional confirmation of the in vitro inhibitory potential of these compounds, and it was considered important because mouse models are likely to be used as the first in vivo tests. […] The experimental setup used was similar to the one described above, but using mCD40 (recombinant mouse CD40/TNFRSF5/Fc Chimera, soluble, R&D Systems) and (FLAG-tagged) mCD154 (recombinant mouse CD40L, soluble, Alexis Biochemicals). This time, however, a higher concentration of CD154 ligand had to be employed to obtain adequate signals, and after a number of calibration tests, mCD40 coating at 0.3125 μg/mL with mCD154 (mCD40L) at 1.1212 μg/mL range was selected to be used to screen the inhibiting activity of various compounds.
The experiments confirmed that the murine anti-CD154 monoclonal antibody (Taconic, MR1) was active in this system at the expected concentration (˜1 nM range), the human antibody was not, and vice versa, the human mAb was active in the human system, but not in the mouse system. The mouse system provided a similar range of activity with some (up to approximately five-fold) changes in activities compared to that seen in the human system (FIG. 2) (Table 1).

[2] = cell-free binding, read-out: Human CD40/CD154 IC50
[3] = cell-free binding, read-out: Human CD40/CD154 IC50 (ug/mL) (converted)
[4] = log of IC50, cell-free binding, read-out: Human CD40/CD154 log IC50 (converted)

Sequence of human TNF-R1/TNFα (P01375 77-233 limits assumed): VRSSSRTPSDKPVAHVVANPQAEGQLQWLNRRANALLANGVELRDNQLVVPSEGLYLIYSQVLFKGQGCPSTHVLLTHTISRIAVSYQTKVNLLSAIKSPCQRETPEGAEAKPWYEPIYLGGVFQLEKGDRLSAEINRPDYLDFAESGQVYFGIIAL
Sequence of human TNF-R1/TNFα (P19438 30-211 limits assumed): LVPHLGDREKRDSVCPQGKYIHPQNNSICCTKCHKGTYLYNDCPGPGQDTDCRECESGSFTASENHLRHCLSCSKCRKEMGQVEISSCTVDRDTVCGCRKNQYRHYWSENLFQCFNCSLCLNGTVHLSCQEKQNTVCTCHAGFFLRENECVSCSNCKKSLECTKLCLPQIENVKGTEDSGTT

Row | Compound | IC50 (human TNF-R1/TNFα) [µM] | Human TNFR1/TNFα log IC50 (human TNF-R1/TNFα) | Human CD40/CD154 IC50 (human CD40/CD154; cell-free binding) [µg/mL] | IC50 (human CD40/CD154; [2]) [µM] | Human CD40/CD154 log IC50 (human CD40/CD154; log of IC50, cell-free binding) | IC50 [1] [µM] | Mouse CD40/CD154 log IC50 [1] | IC50 (human CD40/CD154; [3]) [µM] | IC50 (human CD40/CD154; [4]) [µM]
1 | Nc1c(N=Nc2cccc([N+](=O)[O-])c2)c(S(=O)(=O)[O-])cc2cc(S(=O)(=O)[O-])c(N=Nc3ccccc3)c(O)c12.[Na+].[Na+] [Acid blue 29, acid blue 29] | 467 | −3.33 | 18.6 | 30.2 | −4.52 |  |  |  | 
2 | O=S(=O)([O-])c1cccc(N=Nc2ccc(N=Nc3ccc(Nc4ccccc4)c4c(S(=O)(=O)[O-])cccc34)c3ccccc23)c1.[Na+].[Na+] [Acid blue 113, acid blue 113] |  |  | 0.8 | 1.1 | −5.95 |  |  |  | 
3 | Cc1ccc(S(=O)(=O)Oc2ccc(N=Nc3ccc(-c4ccc(N=Nc5c(O)ccc6cc(S(=O)(=O)[O-])cc(S(=O)(=O)[O-])c56)c(C)c4)cc3C)cc2)cc1.[Na+].[Na+] [Acid red 114, C.I. acid red 114] | 14.2 | −4.85 | 2.4 | 2.8 | −5.55 |  |  |  | 
4 | O=S(=O)([O-])c1cc(S(=O)(=O)[O-])c2c(N=Nc3ccc(N=Nc4ccccc4)cc3)c(O)ccc2c1.[Na+].[Na+] [Brilliant crocein (crocein scarlet MOO), Brilliant crocein, reference compound] |  |  | 92.8 | 141 | −3.85 | 282 | −3.55 |  | 
5 | Nc1ccc(N=Nc2ccc(-c3ccc(N=Nc4c(S(=O)(=O)[O-])cc5cc(S(=O)(=O)[O-])c(N=Nc6ccccc6)c(O)c5c4N)cc3)cc2)c(N)c1.[Na+].[Na+] [Chlorazol black (direct black 38), direct black 38] |  |  | 0.9 | 1.1 | −5.95 |  |  |  | 
6 | Cc1cc(S(=O)(=O)[O-])ccc1N=Nc1ccc(N=Nc2c(O)ccc3cccc(S(=O)(=O)[O-])c23)c(C)c1.[Na+].[Na+] [Crocein scarlet 7B, crocein scarlet 7B] | 168 | −3.77 | 3.6 | 5.5 | −5.26 | 13.7 | −4.86 |  | 
7 | Cc1cc(-c2ccc(/N=N/c3ccc4c(S(=O)(=O)O)cc(S(=O)(=O)O)c(N)c4c3O)c(C)c2)ccc1/N=N/c1ccc2c(S(=O)(=O)O)cc(S(=O)(=O)O)c(N)c2c1O [Evans blue] |  |  |  |  |  |  |  | 1.6 | 1.45
8 | Nc1cc(N)c(N=Nc2cccc3c(S(=O)(=O)O)cccc23)cc1N=Nc1cc([N+](=O)[O-])ccc1O.[Na] [Mordant brown 1, mordant brown 1] | 86 | −4.07 | 0.3 | 0.7 | −6.18 |  |  |  | 
9 | Cc1cc(-c2ccc(/N=N/c3c(S(=O)(=O)O)cc4cc(S(=O)(=O)O)cc(N)c4c3O)c(C)c2)ccc1/N=N/c1c(S(=O)(=O)O)cc2cc(S(=O)(=O)O)cc(N)c2c1O [Trypan blue, trypan blue] |  |  |  |  |  |  |  | 4.24 | 3.8
10 | acid red 188 |  |  | 7.0 | 12.8 | −4.89 |  |  |  | 
11 | direct red 53 |  |  | 16.2 | 24.4 | −4.61 |  |  |  | 

Continued by falling IC50 (human CD40/CD154; [2]), values first:

Row | IC50 (human TNF-R1/TNFα) [µM] | Human TNFR1/TNFα log IC50 (human TNF-R1/TNFα) | Human CD40/CD154 IC50 (human CD40/CD154; cell-free binding) [µg/mL] | IC50 (human CD40/CD154; [2]) [µM] | Human CD40/CD154 log IC50 (human CD40/CD154; log of IC50, cell-free binding) | IC50 [1] [µM] | Mouse CD40/CD154 log IC50 [1] | IC50 (human CD40/CD154; [3]) [µM] | IC50 (human CD40/CD154; [4]) [µM] | Compound
12 |  |  | 8.8 | 13 | −4.88 |  |  |  |  | CCOc1ccc(N=Nc2ccc(-c3ccc(N=Nc4c(O)ccc5cc(S(=O)(=O)[O-])cc(S(=O)(=O)[O-])c45)cc3)cc2)cc1.[Na+].[Na+] [Direct red 37, direct red 37]
13 | 34.9 |  |  | 5.7 |  |  |  | 6.13 |  | Nc1c(/N=N/c2ccc(-c3ccc(/N=N/c4cc(S(=O)(=O)O)c5ccccc5c4N)cc3)cc2)cc(S(=O)(=O)O)c2ccccc12 [Congo red]
14 | 98.5 | −4.01 | 2.2 | 2.1 | −5.68 |  |  |  |  | Nc1ccc2c(O)c(N=Nc3ccc(N=Nc4ccc(N=Nc5cc(S(=O)(=O)[O-])c6cccc(S(=O)(=O)[O-])c6c5)c5ccccc45)c4ccc(S(=O)(=O)[O-])cc34)c(S(=O)(=O)[O-])cc2c1.[Na+].[Na+].[Na+].[Na+] [Direct blue 71, direct blue 71]
15 | 42.4 | −4.37 | 1.3 | 1.9 | −5.72 |  |  |  |  | COc1ccccc1NC(=O)C(N=Nc1ccc(-c2nc3ccc(C)c(S(=O)(=O)[O-])c3s2)cc1S(=O)(=O)[O-])C(C)=O.[Na+].[Na+] (centres unmarked) [Direct yellow 27, direct yellow 27]
16 |  |  | 1.4 | 1.6 | −5.80 |  |  |  |  | direct blue 120
17 |  |  | 1.4 | 1.4 | −5.86 |  |  |  |  | COc1cc(-c2ccc(N=Nc3c(S(=O)(=O)[O-])cc4cc(S(=O)(=O)[O-])cc(N)c4c3O)c(OC)c2)ccc1N=Nc1c(S(=O)(=O)[O-])cc2cc(S(=O)(=O)[O-])cc(N)c2c1O.[Na+].[Na+].[Na+].[Na+] [Direct blue 15, direct blue 15]
